{"source": "patent US20240400531A1", "about": "“HERBICIDAL MALONAMIDES CONTAINING A CONDENSED RING SYSTEM” (BASF SE, priority 2021, published 2024)", "key": {"ECHCG": {"test_system": "ECHCG", "assay": "greenhouse post-emergence herbicidal test", "type": "in vivo, Echinocloa crus-galli", "conditions": "post-emergence method, application rate 0.250 kg/ha, scale from 0 to 100", "excerpt": "(§1) The culture containers used were plastic flowerpots containing loamy sand with approximately 3.0% of humus as the substrate. The seeds of the test plants were sown separately for each species.\n(§2) For the post-emergence treatment, the test plants were first grown to a height of 3 to 15 cm, depending on the plant habit, and only then treated with the active ingredients which had been suspended or emulsified in water. For this purpose, the test plants were either sown directly and grown in the same containers, or they were first grown separately as seedlings and transplanted into the test containers a few days prior to treatment.\n(§3) Depending on the species, the test plants were kept at 10-25° C. or 20-35° C., respectively.\n(§4) The test period extended over 2 to 4 weeks. During this time, the test plants were tended, and their response to the individual treatments was evaluated.\n(§5) Evaluation was carried out using a scale from 0 to 100. 100 means no emergence of the test plants, or complete destruction of at least the aerial moieties, and 0 means no damage, or normal course of growth. A good herbicidal activity is given at values of 65 to <90 and a very good herbicidal activity is given at values of 90 to 100."}, "APESV": {"test_system": "APESV", "assay": "greenhouse pre-emergence herbicidal test", "type": "in vivo, Apera spica-venti", "conditions": "pre-emergence method, application rate 0.250 kg/ha, scale from 0 to 100", "excerpt": "as §1\nFor the pre-emergence treatment, the active ingredients, which had been suspended or emulsified in water, were applied directly after sowing by means of finely distributing nozzles. The containers were irrigated gently to promote germination and growth and subsequently covered with transparent plastic hoods until the test plants had rooted. This cover caused uniform germination of the test plants, unless this had been impaired by the active ingredients.\nas §3, §4, §5"}, "AMARE": {"test_system": "AMARE", "assay": "greenhouse post-emergence herbicidal test", "type": "in vivo, Amaranthus retroflexus", "conditions": "post-emergence method, application rate 0.250 kg/ha, scale from 0 to 100", "excerpt": "as §1, §2, §3, §4, §5"}}, "data": [{"smiles": "COC(C(=O)Nc1cccc2occc12)C(=O)N[C@H]1C=C[C@@H](C(=O)OC(C)C)C1", "note": "(stereo partly drawn) [I.6, isopropyl (1S,4R)-4-[[3-(benzofuran-4-ylamino)-2-methoxy-3-oxo-propanoyl]amino]cyclopent-2-ene-1-carboxylate]", "values": [{"measurement": "herbicidal activity against ECHCG", "setting": "ECHCG", "value": "very good (a very good herbicidal activity is given at values of 90 to 100)"}, {"measurement": "herbicidal activity against APESV", "setting": "APESV", "value": "very good (a very good herbicidal activity is given at values of 90 to 100)"}]}, {"smiles": "COC(C(=O)Nc1cccc2ocnc12)C(=O)N[C@H]1C=C[C@@H](C(=O)OC(C)C)C1", "note": "(stereo partly drawn) [I.11, isopropyl (1S,4R)-4-[[3-(1,3-benzoxazol-4-ylamino)-2-methoxy-3-oxo-propanoyl]amino]cyclopent-2-ene-1-carboxylate]", "values": [{"measurement": "herbicidal activity against AMARE", "setting": "AMARE", "value": "very good (a very good herbicidal activity is given at values of 90 to 100)"}]}]}
